This passage reports EC50, IC50 and AC50 results from ChEMBL document CHEMBL1201862, “PubChem BioAssay data set” (2004).

Active and inactive are the calls of the source.

Assay [1] in a line: NIH-3T3 fibroblast cytotoxicity, dose response, cytotoxicity control, cell-based, fluorescence, Alamar Blue, secondary assay (AID 2327).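 Note: NIH-3T3 mouse fibroblasts cultured with fluconazole at 8 µg/mL.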 Type of assay: functional.
Assay [2] is described as follows: insulin promoter down-regulators in MIN6 cells, imaging, high-content screening, mouse beta cells (AID 1628). The assay is classed as functional.
Assay [3] is described as follows: cytotoxicity in MIN6 insulinoma cells, dose response, cytotoxicity control, cell-based, mouse insulinoma (AID 2122).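 Note: confirmatory high-throughput counterscreen run to flag cytotoxic compounds; mouse MIN-6 beta cells carrying an insulin promoter eGFP reporter.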 Type of assay: functional.
A short description of assay [4]: C. albicans growth with fluconazole, confirmation, fluorescence, retest (AID 2467). The assay is classed as functional, cell-based.
Assay [5] concerns the target T1, Microphthalmia-associated transcription factor (Homo sapiens, UniProt O75030).
T1 sequence (O75030 whole entry): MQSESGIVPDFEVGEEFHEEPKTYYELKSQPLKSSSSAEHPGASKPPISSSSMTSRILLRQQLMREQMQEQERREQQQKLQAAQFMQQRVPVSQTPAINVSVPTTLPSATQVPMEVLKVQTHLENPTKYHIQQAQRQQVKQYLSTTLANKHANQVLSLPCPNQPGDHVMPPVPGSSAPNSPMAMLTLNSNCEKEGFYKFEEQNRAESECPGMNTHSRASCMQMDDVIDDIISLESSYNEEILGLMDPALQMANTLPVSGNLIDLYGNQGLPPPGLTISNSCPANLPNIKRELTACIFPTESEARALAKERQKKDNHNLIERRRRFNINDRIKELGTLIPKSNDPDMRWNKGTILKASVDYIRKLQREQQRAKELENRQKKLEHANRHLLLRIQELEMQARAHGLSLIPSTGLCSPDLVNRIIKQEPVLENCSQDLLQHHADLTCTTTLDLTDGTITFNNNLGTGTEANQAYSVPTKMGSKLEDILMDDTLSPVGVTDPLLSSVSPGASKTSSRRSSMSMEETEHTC
As to the kind of experiment: TRPM1 promoter luciferase signal decrease, dose response, MITF inhibitor project, cell-based, SK-MEL-5, cherry-picked, set 3 (AID 493073).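 Note: SK-MEL-5 melanoma cells with luciferase driven by the MITF target TRPM1 promoter.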 Type of assay: functional.

In assay [6] the test system is A-375. As to the kind of experiment: MITF: Counter assay: A375 proliferation Measured in Cell-Based System Using Plate Reader - 2084-03_Inhibitor_Dose_DryPowder_Activity. [Related pubchem assays (depositor defined):AID488944]. The assay is classed as functional. As to conditions: Homo sapiens.
The test system of a further assay is INS1. As to the kind of experiment: beta cell apoptosis inhibitors, cytokine rescue, dose response, luminescence, retest (AID 449756).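 Note: cell death triggered by IL-1 beta plus TNF-alpha plus IFN-gamma mixture; protective hits raise ATP signal compared with cytokine alone wells.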 The assay is classed as functional, cell-based. As to conditions: Rattus norvegicus.
A further assay has as its system Jurkat. As to the kind of experiment: antigen receptor-induced NF-kB inhibitors, dose response, Jurkat, luciferase reporter, luminescence, B- and T-cell (AID 489004).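 Note: NF-kB luciferase reporter Jurkat cells stimulated with PMA plus ionomycin.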 Type of assay: functional, cell-based. Conditions: Homo sapiens.
Assay [7] in a line: cytotoxicity in HEK-293T NF-kB-Luc cells, dose response, cytotoxicity control for B/T-cell NF-kB inhibitor project, cell-based, uHTS hits (AID 489019).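 Note: IC50 reflects cytotoxicity as loss of cell viability.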 Type of assay: functional.
Assay [8] is described as follows: Shn3 3'UTR reporter inhibitors, dose response, cell-based, Clone20 osteoblasts, firefly luciferase, cherry-picked (AID 624132).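 Note: firefly luciferase luminescence from reporter carrying the Shn3 3'UTR in osteoblasts.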 Type of assay: functional.
Assay [9] in a line: HepG2 cell cytotoxicity, dose response, cytotoxicity control for Shn3 inhibitor project, CellTiter-Glo, cherry-picked (AID 624134). The assay is classed as functional, cell-based.
Assay [10] in a line: control 3'UTR Renilla luciferase suppression, dose response, counter-screen for Shn3 inhibitor project, cell-based, Clone20-Shn3RL, cherry-picked (AID 624133). Type of assay: functional.
Assay [11] has as its target Photoreceptor-specific nuclear receptor (Homo sapiens, UniProt Q9Y5X4). Type of assay: functional, cell-based.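 Note: CHO-S cells with Gal4-NCOR and VP16-NR2E3 two-hybrid luciferase reporter.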
Assay [12] in a line: growth suppression of PTEN-null colon cells, dose response, cell-based, HCT116 PTEN knockout (AID 1047).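 Note: HCT116 colon tumor cells with PTEN knocked out; cells exposed to compound for 60 hours before readout; potency for loss of cell viability measured by luminescence.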 Type of assay: functional.
Assay [13] can be described thus: growth suppression of beta-catenin-knockout colon cells, dose response, cell-based, HCT116, human colon tumor (AID 1045).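 Note: HCT116 colon tumor cells with beta catenin knocked out; cells exposed to compound for 60 hours.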 The assay is classed as functional.
Assay [14] deals with A-375. As to the kind of experiment: A375 melanoma cell viability reduction, dose response, counter-screen for MITF modulator project, cherry-pick samples, set 2 (AID 540335). Type of assay: functional, cell-based. Conditions: Homo sapiens.
Another assay addresses Paired box protein Pax-8 (Homo sapiens, UniProt Q06710). As to the kind of experiment: inhibitors of PAX8-driven TPO luciferase reporter, dose response, RMG-I cells, cherry-pick (AID 687027).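 Note: luciferase reporter driven by Pax8 target thyroperoxidase promoter measured by SteadyGlo luminescence.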 The assay is classed as functional, cell-based.
Assay [15] in a line: PAX2 cell-based inhibition, dose response, selectivity assay for PAX8 inhibitor project, plate reader, dry powder samples (AID 743048).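 Note: HEK293 cells carrying a WT1 promoter luciferase reporter driven by expressed Pax2; potency is for inhibition of Pax2 driven reporter signal.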 Type of assay: functional.
Assay [16] in a line: cytotoxicity in COV362 ovarian cancer cells, dose response, cytotoxicity control for PAX8 inhibitor project, cell-based, plate reader, dry powder, SA12 (AID 743144). The assay is classed as functional.
Assay [17] can be described thus: IOSE-T80 ovarian epithelial cell cytotoxicity, dose response, cytotoxicity control for PAX8 inhibitor project, plate reader, dry powder samples (AID 743045). The assay is classed as functional, cell-based.
Assay [18] is described as follows: A2780 ovarian cancer cell cytotoxicity, dose response, cytotoxicity control, plate reader, dry powder samples (AID 743046). Type of assay: functional, cell-based.
Assay [19] is described as follows: NIH:OVCAR-3 ovarian cancer cell cytotoxicity, dose response, PAX8 inhibitor project, plate reader, dry powder samples (AID 743044). Type of assay: functional, cell-based.
Assay [20] is described as follows: PAX5 activity inhibitors, dose response, selectivity assay for PAX8 inhibitor project, cell-based, plate reader, dry powder samples (AID 743047).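 Note: HEK293 cells carrying a Pax5 driven CD19 promoter luciferase reporter; potency of inhibitors that lower reporter luminescence.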 Type of assay: functional.
Assay [21] in a line: IGROV1 ovarian cancer cell cytotoxicity, dose response, PAX8 inhibitor project, plate reader, dry powder samples (AID 743043). Type of assay: functional, cell-based. As to conditions: IGROV-1.
The nature of assay [22]: cytotoxicity in OVCAR4 cells, dose response, cytotoxicity control for PAX8 inhibitor project, cell-based, plate reader, dry powder, SA11 (AID 743150). Type of assay: functional. Conditions: OVCAR-4.
A short description of assay [23]: cytotoxicity in COV434 cells, dose response, cytotoxicity control for PAX8 inhibitor project, cell-based, plate reader, dry powder, SA7 (AID 743145). The assay is classed as functional.
Assay [24] can be described thus: cytotoxicity in OV-90 ovarian cancer cells, dose response, PAX8 inhibitor project, cell-based, plate reader, dry powder, SA8 (AID 743149). The assay is classed as functional.
Assay [25] in a line: cytotoxicity dependent on PAX8, dose response, cell-based, plate reader, dry powder (AID 743049). Type of assay: functional.

Chain of Photoreceptor-specific nuclear receptor (Q9Y5X4 whole entry, the tested form may be a part): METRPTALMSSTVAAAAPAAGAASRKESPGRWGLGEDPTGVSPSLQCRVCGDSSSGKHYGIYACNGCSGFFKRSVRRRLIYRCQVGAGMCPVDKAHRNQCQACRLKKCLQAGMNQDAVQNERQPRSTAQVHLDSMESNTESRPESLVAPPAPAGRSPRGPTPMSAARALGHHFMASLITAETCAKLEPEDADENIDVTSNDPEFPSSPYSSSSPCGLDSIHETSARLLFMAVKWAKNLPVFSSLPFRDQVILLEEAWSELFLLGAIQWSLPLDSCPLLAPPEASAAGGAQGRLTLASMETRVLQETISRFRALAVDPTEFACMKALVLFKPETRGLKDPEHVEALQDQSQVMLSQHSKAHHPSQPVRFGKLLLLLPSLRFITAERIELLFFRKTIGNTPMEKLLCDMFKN
Chain of Paired box protein Pax-8 (Q06710 whole entry): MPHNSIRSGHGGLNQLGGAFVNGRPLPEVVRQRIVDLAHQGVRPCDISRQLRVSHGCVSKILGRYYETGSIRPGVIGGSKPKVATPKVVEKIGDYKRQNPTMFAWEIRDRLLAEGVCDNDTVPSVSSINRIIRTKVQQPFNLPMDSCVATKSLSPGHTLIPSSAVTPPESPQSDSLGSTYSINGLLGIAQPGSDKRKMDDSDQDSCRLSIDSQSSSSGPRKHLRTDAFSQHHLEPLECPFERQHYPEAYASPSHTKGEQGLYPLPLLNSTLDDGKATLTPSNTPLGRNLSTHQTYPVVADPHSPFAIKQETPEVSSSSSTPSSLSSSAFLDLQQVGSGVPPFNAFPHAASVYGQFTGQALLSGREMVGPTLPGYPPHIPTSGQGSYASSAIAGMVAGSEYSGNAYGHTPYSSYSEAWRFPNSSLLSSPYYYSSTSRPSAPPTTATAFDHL

`COc1ccc(-c2c[n+](CC(=O)OC3CC(C)CCC3C(C)C)c3n2CCC3)cc1` (centres undefined): the EC50 was > 150 µM (inactive) in assay [1] and 894 nM (active) in [4]. The IC50 in [2] and in assay [3] was < 250 nM (active) in each case. Besides, the AC50 in assay [5] was 4.87 µM (active); in the assay on A-375 [6], 35 µM (active); in the assay on INS1 it was 1.78 µM (active).
On to `Cc1cc2sc3ccc(C#CC4(O)CCCCC4)cc3c(=O)c2cc1C`, for which the IC50 with Jurkat is < 160 nM (active); in assay [7], > 80 µM (inactive); in assay [11], 18.2 nM (active). Moreover, the AC50 in assay [8] was < 260 nM (active); in assay [9], 42 µM (active); in [10], 25 µM (active).
With `COc1ccc(Br)cc1/C=C/C(=O)c1ccc(NC(C)=O)cc1`, the EC50 in assay [12] was 1.12 µM (active); in assay [13] it was 1.04 µM (active). Also, the AC50 was 4.64 µM (active) in [5]; 33.2 µM (active) with A-375 [14]; 3.8 µM (active) on Paired box protein Pax-8; 7.73 µM (active) in assay [15]; 8.41 µM (active) in assay [16]; 9.22 µM (active) in [17]. Also, the AC50 in [18] is 17.6 µM (active); in [19], 8.78 µM (active); in [20], 7.08 µM (active); in [21], 15 µM (active); in assay [22], 13.7 µM (active); in assay [23], 13.6 µM (active). Besides, the concentration at half-maximal activity (AC50) in [24] was 17.9 µM (active); in assay [25] it was 11.7 µM (active).
